Test results reported in patent US11865096B2, “Oils with anti-inflammatory activity containing natural specialized proresolving mediators and their precursors” (Solutex NA LLC, priority 2012, dated 2024).

How the values were obtained:
[1] = tested on: zymosan A-induced peritoneal inflammation (inflammatory exudate cells); assay: Murine peritoneal inflammation induced by zymosan A, exudate cells by FACS; type: in vivo, mouse; details: 4 hours after 0.1 mg zymosan A i.p., vs vehicle
Description: With respect to 17-HDHA, it is possible that the anti-inflammatory activity of oil fraction 1 (shown in FIG. 1A) can therefore be explained, at least in part, due to the selective enrichment of this anti-inflammatory SPM precursor into this oil fraction. In order to determine the anti-inflammatory action and contribution of 17-HDHA, the anti-inflammatory effect of fraction 1 was determined in a well-known model of sterile inflammation. […] Vehicle (100 microliter sterile salive), 100 microliter oil fraction 1, or 1 microgram synthetic 17S-HDHA (Cayman Chemicals) in sterile salive was administered by gavage 30 minutes prior to intraperitoneal injection of 0.1 mg zymosan A. Oil fraction 1 analyzed here is the same as fraction number 1 shown in FIGS. 1, 2, and 3. After 4 hours, the inflammatory exudate was recovered and the changes in the number and types of inflammatory cells determined by fluorescent-activated cell sorting employing specific fluorescently-labeled antibodies. Values are mean±standard error of the mean of […] individual mice. Statistically significant differences (Student's t-test) are indicated by * (P<0,05) or # (P<0,10) for comparisons of inflammatory exudate cell numbers obtained after treatment with oil fraction 1 or compared to the vehicle-treated mice. […] This anti-inflammatory effect was reproduced by the oral administration (gavage) of 17S-HDHA.

[2] = tested on: LPS-induced inflammation (neutrophil infiltration, myeloperoxidase bioluminescence); assay: Murine subcutaneous LPS-induced inflammation, neutrophil activity by luminol bioluminescence; type: in vivo, mouse; details: given by gavage 30 min prior to LPS (oil fraction 100 microliter; indomethacin 10 mg/kg), vs vehicle
From the text: To evaluate the anti-inflammatory activity of distinct fatty acid-ethyl ester oil fractions obtained during supercritical fluid chromatography (SFC) for the industrial-scale manufacturing of EPA-ethyl ester and DHA-ethyl ester concentrates, a murine model of subcutaneous sterile inflammation was established which permitted measuring the effects of orally administered oil fractions on the pro-inflammatory phase of the inflammatory response. […] In order to initiate inflammation, Escherichia coli lipopolysaccharide (LPS; serotype 127:B8, purified by trichloroacetic acid extraction, Sigma-Aldrich) was injected sub-cutaneously as a single dose (5 milligram per kilogram in a 200 microliter volume of sterile […] dorsal hind flank of a mouse (CD1 mice of 9 weeks age and weighing approximately 30 grams, purchased from the Charles River company). Neutrophil infiltration into the site of inflammation was measured non-invasively by bioluminescence emitted by conversion of luminol by the neutrophil enzyme myeloperoxidase (Gross, 2009), permitting assessment of inflammatory changes over a 6 hour time period. […]

[3] = gavage 30 min prior (100 microliter oil fraction or 1 microgram 17S-HDHA)

SMILES	number of polymorphonuclear leukocytes (PMN) in exudate [1, 3]	total number of exudate cells [1, 3]	monocytes, macrophages or lymphocytes in exudate ([1]; gavage 30 min prior)	reduction of LPS-induced inflammation ([2]; 3 hours after LPS s.c.)	reduction of LPS-induced inflammation ([2]; 6 hours after LPS s.c.)
CC/C=C\C[C@H](O)/C=C/C=C\C/C=C\C/C=C\C/C=C\CCC(=O)O [17S-HDHA, 17S-hydroxy-docosa-4Z,7Z,10Z,13Z,15E,19Z-hexaenoic acid]	reproduced	reproduced	No statistically significant changes	–	–
COc1ccc2c(c1)c(CC(=O)O)c(C)n2C(=O)c1ccc(Cl)cc1 [indomethacin]	–	–	–	26%	44%
